In patent publication US10508104B2, “6-hydroxy-5-(phenyl/heteroarylsulfonyl)pyrimidin-4(1H)-one as APJ agonists” (Bristol-Myers Squibb Company, priority 2016, dated 2019):
pEC50: −log10 of the molar value.

Biological target: human APJ receptor (Homo sapiens (Human), UniProt P35414)
Assay: Intracellular cAMP accumulation assay (APJ hcAMP, HTRF)
Format: cell-based
Details: HEK293 cells stably expressing human APJ receptor; inhibition of forskolin-mediated cAMP production; read-out: Human APJ cAMP EC50 Potency range
How it was run: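 HEK293 cells stably expressing human APJ, 5,000 per well, incubated 30 min at rt with compound, […] and 2 μM forskolin. cAMP measured by HTRF against a cAMP standard curve as inhibition of forskolin-driven production. EC50 from variable-slope sigmoidal fit.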

Sequence of human APJ receptor (P35414 whole entry): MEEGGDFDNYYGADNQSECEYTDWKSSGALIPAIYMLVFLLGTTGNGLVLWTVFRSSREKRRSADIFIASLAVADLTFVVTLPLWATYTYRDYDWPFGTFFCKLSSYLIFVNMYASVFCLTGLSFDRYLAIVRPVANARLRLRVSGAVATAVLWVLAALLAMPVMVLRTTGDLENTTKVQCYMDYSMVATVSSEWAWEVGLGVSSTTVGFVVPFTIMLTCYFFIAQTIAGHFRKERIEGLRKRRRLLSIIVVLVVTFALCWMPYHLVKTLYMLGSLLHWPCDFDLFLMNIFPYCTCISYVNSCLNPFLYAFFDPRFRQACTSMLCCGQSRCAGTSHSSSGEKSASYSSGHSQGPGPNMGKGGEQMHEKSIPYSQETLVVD

| Structure (SMILES) | pEC50 |
| --- | --- |
| COC[C@@H](c1ccccc1)n1c(COC(C)C)nc(=O)c(S(=O)(=O)c2ccc(-c3ccccc3C(N)=O)c(F)c2)c1O [Example 402, 2′-fluoro-4′-({6-hydroxy-1-[(1R)-2-methoxy-1-phenylethyl]-4-oxo-2-[(propan-2-yloxy)methyl]-1,4-dihydropyrimidin-5-yl}sulfonyl)-[1,1′-biphenyl]-2-carboxamide] | 8.00 to 11.00 |
| COC[C@@H](c1ccccc1)n1c(CCC(C)C)nc(=O)c(S(=O)(=O)c2ccc(-c3ccnc(F)c3C)cc2)c1O [Example 189, (R)-5-((4-(2-Fluoro-3-methylpyridin-4-yl)phenyl)sulfonyl)-6-hydroxy-2-isopentyl-1-(2-methoxy-1-phenylethyl)pyrimidin-4(1H)-one] | 8.00 to 11.00 |
| CCCCc1nc(=O)c(S(=O)(=O)c2ccc(-c3cccnc3C)cc2)c(O)n1C(c1cccc(C#N)c1)C1CC1 (centres unmarked) [Example 460, 3-({2-butyl-6-hydroxy-5-[4-(2-methylpyridin-3-yl)benzenesulfonyl]-4-oxo-1,4-dihydropyrimidin-1-yl}(cyclopropyl)methyl) benzonitrile] | 8.00 to 11.00 |
| CC[C@@H](c1cc(F)cc(C#N)c1)n1c(CC2CC2)nc(=O)c(S(=O)(=O)c2ccc(-c3ccnc(F)c3C)cc2)c1O [Example 488, 3-[(1S)-1-[2-(cyclopropylmethyl)-5-[4-(2-fluoro-3-methylpyridin-4-yl)benzenesulfonyl]-6-hydroxy-4-oxo-1,4-dihydropyrimidin-1-yl]propyl]-5-fluorobenzonitrile] | 8.00 to 11.00 |
| CCCCc1nc(=O)c(S(=O)(=O)c2ccc(-c3ccc(C(=O)NC)cc3F)cc2)c(O)n1[C@@H](CC)c1cccc(C#N)c1 [Example 545, 4′-({2-butyl-1-[(1S)-1-(3-cyanophenyl)propyl]-6-hydroxy-4-oxo-1,4-dihydropyrimidin-5-yl}sulfonyl)-2-fluoro-N-methyl-[1,1′-biphenyl]-4-carboxamide] | 8.00 to 11.00 |
| CCCCc1nc(=O)c(S(=O)(=O)c2ccc(-c3cccc(C(=O)NC)c3)cc2)c(O)n1[C@@H](CC)c1cccc(C#N)n1 [Example 552, 4′-({2-butyl-1-[(1S)-1-(6-cyanopyridin-2-yl)propyl]-6-hydroxy-4-oxo-1,4-dihydropyrimidin-5-yl}sulfonyl)-N-methyl-[1,1′-biphenyl]-3-carboxamide] | 8.00 to 11.00 |
| CCOCc1nc(=O)c(S(=O)(=O)c2ccc(-c3ccc(F)nc3C)cc2)c(O)n1[C@@H](CC)c1cccc(C#N)c1 [Example 436, 3-[(1S)-1-[2-(ethoxymethyl)-5-[4-(6-fluoro-2-methylpyridin-3-yI)benzenesulfonyl]-6-hydroxy-4-oxo-1,4-dihydropyrimidin-1-yl]propyl]benzonitrile] | 8.00 to 11.00 |
| CCCCc1nc(=O)c(S(=O)(=O)c2ccc(-c3ccnc(F)c3C)cc2)c(O)n1[C@@H](CC)c1cccc(C#N)n1 [Example 549, 6-[(1S)-1-{2-butyl-5-[4-(2-fluoro-3-methylpyridin-4-yI)benzenesulfonyl]-6-hydroxy-4-oxo-1,4-dihydropyrimidin-1-yl}propyl]pyridine-2-carbonitrile] | 8.00 to 11.00 |
| CCCCc1nc(=O)c(S(=O)(=O)c2ccc(-c3cccnc3C(N)=O)cc2)c(O)n1[C@@H](CC)c1cccc(C#N)c1 [Example 509, 3-[4-({2-butyl-1-[(1S)-1-(3-cyanophenyl)propyl]-6-hydroxy-4-oxo-1,4-dihydropyrimidin-5-yl}sulfonyl)phenyl] pyridine-2-carboxamide] | 8.00 to 11.00 |
| COC[C@@H](c1cc(F)cc(F)c1)n1c(COC(C)C)nc(=O)c(S(=O)(=O)c2ccc(-c3ccncc3C#N)cc2)c1O [Example 398, 4-[4-({1-[(1R)-1-(3,5-difluorophenyl)-2-methoxyethyl]-6-hydroxy-4-oxo-2-[(propan-2-yIoxy)methyl]-1,4-dihydropyrimidin-5-yl}sulfonyl)phenyl] pyridine-3-carbonitrile] | 8.00 to 11.00 |
| CCCCc1nc(=O)c(S(=O)(=O)c2ccc(-c3ccccc3C#N)cc2)c(O)n1[C@@H](CC)c1cccc(C#N)c1 [Example 466, 4′-({2-butyl-1-[(1S)-1-(3-cyanophenyl)propyl]-6-hydroxy-4-oxo-1,4-dihydropyrimidin-5-yl}sulfonyl)-[1,1′-biphenyl]-2-carbonitrile] | 8.00 to 11.00 |

Same assay, conditions: human APJ, cAMP accumulation; read-out: Human APJ cAMP EC50 Potency range

| Structure (SMILES) | pEC50 |
| --- | --- |
| CC[C@@H](c1ccccc1)n1c(COC(C)C)nc(=O)c(S(=O)(=O)c2ccc(-c3ccc(F)nc3C)cc2)c1O [Example 311, 5-[4-(6-fluoro-2-methylpyridin-3-yl)benzenesulfonyl]-6-hydroxy-1-[(1S)-1-phenylpropyl]-2-[(propan-2-yloxy)methyl]-1,4-dihydropyrimidin-4-one] | 8.00 to 11.00 |
| COC[C@@H](c1ccccc1)n1c(COC(C)C)nc(=O)c(S(=O)(=O)c2ccc(-c3ccc(F)nc3C)cc2)c1O [Example 321, 5-[4-(6-fluoro-2-methylpyridin-3-yl)benzenesulfonyl]-6-hydroxy-1-[(1R)-2-methoxy-1-phenylethyl]-2-[(propan-2-yloxy)methyl]-1,4-dihydropyrimidin-4-one] | 8.00 to 11.00 |
| CCOCc1nc(=O)c(S(=O)(=O)c2ccc(-c3ccc(F)nc3)c(F)c2)c(O)n1[C@@H](COC)c1ccccc1 [Example 341, 2-(ethoxymethyl)-5-[3-fluoro-4-(6-fluoropyridin-3-yl)benzenesulfonyl]-6-hydroxy-1-[(1R)-2-methoxy-1-phenylethyl]-1,4-dihydropyrimidin-4-one] | 8.00 to 11.00 |
| COC[C@@H](c1ccccc1)n1c(COC(C)C)nc(=O)c(S(=O)(=O)c2ccc(F)c(F)c2)c1O [Example 337, 5-(3,4-difluorobenzenesulfonyl)-6-hydroxy-1-[(1R)-2-methoxy-1-phenylethyl]-2-[(propan-2-yloxy)methyl]-1,4-dihydropyrimidin-4-one] | 8.00 to 11.00 |

Same assay, conditions: human APJ, intracellular cAMP accumulation; read-out: Human APJ cAMP EC50 Potency range

| Structure (SMILES) | pEC50 |
| --- | --- |
| COc1cccc(OC)c1-n1c(C2CCCC2)nc(=O)c(S(=O)(=O)c2ccc(C3CC3)cc2)c1O [Example 86, 2-cyclopentyl-5-(4-cyclopropylbenzene-sulfonyl)-1-(2,6-dimethoxyphenyl)-6-hydroxy-1,4-dihydropyrimidin-4-one] | 8.00 to 11.00 |
| CCCCc1nc(=O)c(S(=O)(=O)c2ccc(-c3ccc(F)nc3)cc2)c(O)n1[C@@H](CC)c1cccc(OC)c1 [Example 146, 2-butyl-5-[4-(6-fluoropyridin-3-yl)benzenesulfonyl]-6-hydroxy-1-[(1S)-1-(3-methoxyphenyl)propyl]-1,4-dihydropyrimidin-4-one] | 8.00 to 11.00 |
| CCCCc1nc(=O)c(S(=O)(=O)c2ccc(-c3cccc(OCOC)c3)cc2)c(O)n1-c1c(OC)cccc1OC [Example 45, 2-butyl-1-(2,6-dimethoxyphenyl)-6-hydroxy-5-{4-[3-(methoxymethoxy)phe-nyl]benzenesulfonyl}-1,4-dihydropyrimidin-4-one] | 8.00 to 11.00 |
| CCCCc1nc(=O)c(S(=O)(=O)c2ccc(-c3ccc(F)c(F)c3)cc2)c(O)n1-c1c(OC)cccc1OC [Example 58, 2-butyl-5-[4-(3,4-difluorophenyl)benzenesulfonyl]-1-(2,6-dimethoxyphenyl)-6-hydroxy-1,4-dihydropyrimidin-4-one] | 8.00 to 11.00 |
| CCCCc1nc(=O)c(S(=O)(=O)c2ccc(-c3ccncc3C)cc2)c(O)n1[C@H](CC)c1ccccc1 [Example 143, 2-butyl-6-hydroxy-5-[4-(3-methylpyridin-4-yl)benzenesulfonyl]-1-[(1R)-1-phenylpropyl]-1,4-dihydropyrimidin-4-one] | 8.00 to 11.00 |
